Compound | melting point
CCCCc1c(Cc2ccc(-c3ccccc3)c(-c3nnn[nH]3)c2)c(COC)nn1CC(F)(F)F | 48 °C
O=C(O)c1cc([N+](=O)[O-])ccc1NCc1ccco1 | 190 to 192 °C
CCOC(=O)c1cnn(Cc2ccc(OCc3nc(-c4ccccc4)oc3C)cc2)c1 | 108 to 109 °C
c1cnc2ccc(Cn3nnc4ccc(-c5ccc6c(c5)CCO6)nc43)cc2c1 | 131 to 133 °C
O=C(Nc1ccccc1)OCC#Cc1cc(F)c2ncc(C(=O)NCc3ccc(Cl)cc3)c(O)c2c1 | 227 to 229 °C
CCCCOC(=O)OCN1C(=O)CN(CCN2CC(=O)N(COC(=O)OCCCC)C(=O)C2)CC1=O | 68 to 71 °C
CCc1nc(/C=C/c2cn(-c3ccccc3)nc2O)c(C)s1 | 184 to 186 °C
Nc1ccc(Oc2ccc(C3CCCCC3)cc2)c(N)c1 | 101 °C
CC(C)[C@H](NC(=O)CC[C@H](C)CNC(=O)COc1ccccc1)[C@@H](O)c1c(-c2ccccc2)c1=O | 74 to 84 °C
CCOCCNC(=O)c1c(Cl)cccc1[Si](C)(C)C | 71 to 73 °C
CCCCSc1nsnc1O | 72 to 72.5 °C
CC(C)Cc1cc2cc(O)c(Cl)c(Cl)c2s1 | 58 to 59 °C
C[C@@H]1C(=O)C[C@H]2C[C@@H]1OO[C@@]2(C)/C=C\c1ccc(Cl)cc1 | 90 °C
Clc1cc(Oc2cc(Cl)nc(-c3ccc(Cl)s3)n2)ccn1 | 154 to 156 °C
CO[C@@H]1c2ccn3c(C)c(C)nc3c2N[C@H](c2ccccc2)[C@H]1OC=O | 152 to 153 °C
CC(C)(C)OC(=O)N[C@H]1C=C[C@@H](CO)C1 | 68 to 70 °C
CC(C)(C)OC(=O)Nc1ccc2ccc(S(C)(=O)=O)cc2c1Br | 166 to 167 °C
O=C(Nc1ccccc1S(=O)(=O)NCC1CCCCC1)N[C@@H](Cc1ccc(NC(=O)c2c(Cl)cccc2Cl)cc1)C(=O)O | 185 °C
Nc1ccc(-c2ccncc2)cc1 | 232 to 234 °C
Cc1cccc(C(=O)Cc2ccnc(NC(=O)OC(C)(C)C)c2)c1 | 144 to 146 °C
CCNC(=O)C1CC(=O)N(Cc2ccccc2)C1 (configuration not stated) | 97 to 99 °C
CCOC(=O)/C=C/c1cccc(C2CCCC2)c1OCCc1ccccc1 | 78 to 80 °C
CCOC(=O)c1c(-c2ccc(N)cc2)c(C#N)c(=O)n2ccccc12 | 260 to 262 °C
Cc1cc(C)c(C(=O)c2cc(C(C)(C)C)c(O)c(C(C)(C)C)c2)c(Cl)n1 | 109 to 110 °C
CN(CCN1CCC[C@@H](C(=O)O)C1)C1c2ccccc2CCc2ccccc21 | 187 to 190 °C
Nc1ccc(C2=NCCO2)cc1 | 163 to 165 °C

Compound | melting point
COC1CCC(C2=C(O)C(=O)c3ccccc3C2=O)CC1 (configuration not stated) | 152 to 155 °C
COC(=O)CCc1sc(Sc2ccc(O)cc2)nc1-c1ccccc1 | 153 to 155 °C
Cc1cc(C=O)cc(C=O)c1OCCCC(c1ccc(F)cc1)c1ccc(F)cc1 | 97 °C
Cn1ncc2nn(-c3cccc(C(F)(F)F)c3)c(=O)c(Cl)c21 | 156 to 158 °C
O=[N+]([O-])c1cn(-c2cccnc2)nc1F | 139 to 141 °C
COC(=O)C(C)(Cc1c[nH]c2ccc(OC)cc12)[N+](=O)[O-] (racemic) | 109 to 110 °C
CC(C)n1nc(-c2c(NCc3cccnc3)nc(N)nc2-c2ccccc2)ccc1=O | 215 to 216 °C
CCOC(=O)C(C=O)Cc1ccn(Cc2ccccc2)c(=O)c1 (configuration not stated) | 140 to 143 °C
C=CCNC(=O)N1CC(Oc2ccc(C(F)(F)F)cc2)C1 | 91 to 92.5 °C
CC(C)C(=O)NC1CCc2c(c3cc(Br)ccc3n2Cc2cccc(F)c2)C1 (configuration not stated) | 177 to 179 °C
CCC(c1cccc(Br)c1)c1c(O)c2ccccc2oc1=O (configuration not stated) | 168 to 172 °C
CC1(C)CC(=O)Nc2ccccc21 | 111 to 112 °C
COc1cc(OCc2ccccc2)c(C23CC4CC(CC(C4)C2)C3)cc1Br | 124 to 126 °C
CC(C)(O)C(=O)Nc1ccc2ccccc2c1 | 155 to 157 °C
COC(=O)c1ccc(C2CC(=O)NC2(CO)CO)c([N+](=O)[O-])c1 (configuration not stated) | 144 to 145 °C
CCN(C(=O)Cn1c(=O)n(C)c2nc(-c3ccccc3)ncc21)c1ccc(O)cc1 | 254 to 256 °C
COc1ccc(CN2C(=O)C(C)(c3cc(CN4CCCCC4=O)ccc3Cl)c3cc(Cl)ccc32)c(OC)c1 (configuration not stated) | 72 °C
CC(C)(C)Nc1c(NCc2cccc(OC(F)(F)F)c2)c(=O)c1=O | 210 to 212 °C
COc1cc(C)cc(OC)c1NC(=O)CNC(=O)OC(C)(C)C | 146 °C
CC12CC3(C)CC(c4ccc(C(=O)O)cc4)(C1)CC(c1ccc(C(=O)O)cc1)(C2)C3 | 252 to 255 °C
CC(=O)Oc1ccc2c(c1)CCC1C2CCC2(C)C(OS(C)(=O)=O)CCC12 (configuration not stated) | 120 to 122 °C
OCc1c(Cl)cncc1Cl | 87 to 88 °C
CCOC(=O)c1c(CCCn2ccnc2)nc2cc(OC)c(OC)cc2c1-c1ccc(OC)c(OC)c1 | 164 to 165 °C
CCCCc1oc2ccccc2c1C(O)c1ccc(-c2cc(Br)c(O)c(Br)c2)cc1 (configuration not stated) | 60 to 62 °C
COc1ccc(C=CC(=O)c2c(OC)cc(OC)cc2OC(=O)OCc2ccccc2)cc1 | 127 °C
O=C(CCc1cccnc1)NCCCCC1CCN(C2c3ccccc3COc3ccccc32)CC1 (configuration not stated) | 110 to 112 °C

Compound | melting point
Cc1c(F)c([N+](=O)[O-])cc2oc(=O)[nH]c12 | 194 to 196 °C
CC(CC(=O)c1ccccc1)C(=O)N1CCC[C@H]1C(=O)O (some centres not stated) | 218 to 220 °C
CCOC(=O)C(O)=Cc1ncc(Cc2ccc(F)cc2)s1 | 160 to 162 °C
CNc1nsnc1-c1c(Cl)cccc1Cl | 145 to 146 °C
Cc1nc(-n2ccn(Cc3ccc(F)cc3)c2=O)sc1C(=O)NCc1ccccc1 | 167 to 168 °C
CSc1c(NCc2ccncc2)cnn(C(C)(C)C)c1=O | 107 to 110 °C
CC(C)[C@H](NC(=O)OCc1ccccc1)C(=O)NC(Cc1ccccc1)C(O)C(Cc1ccccc1)NC(=O)OC(C)(C)C (some centres not stated) | 187 to 188 °C
CCCCC(=O)Nc1cccc([N+](=O)[O-])c1 | 65 °C
CCC(=O)Nc1cccc(-c2ccnc3c(C(=O)c4ccco4)cnn23)c1 | 185 to 186 °C
N#Cc1ccc2oc(CCCCc3cc4cc(C#N)ccc4o3)cc2c1 | 187 to 188 °C
Cn1ccn(Cc2ccc([N+](=O)[O-])cc2)c1=S | 162 to 168 °C
CCOC(=O)c1cn(-c2ccccn2)c2occc2c1=O | 199 to 200 °C
O=C1OCCn2c1cc(=O)c(O)c2C(O)c1ccc(F)cc1 (configuration not stated) | 221 to 225 °C
O=C(O)COc1cccnc1Br | 172 to 174 °C
CCCNC(=O)CCn1cnc2c(N)nc3ccccc3c21 | 212 to 214 °C
Cc1nccc2c1ccc(=O)n2C | 203 to 205 °C
C#CCN1C(=O)C(CC#N)C(CC)(CC)N=C1c1ccccc1 (configuration not stated) | 178 to 180 °C
CSc1ccc(N)c(C#N)c1 | 50 to 54 °C
CC(CN1CCCC1)N1c2ccccc2Sc2ccc(C(=O)NCc3ccccc3[N+](=O)[O-])cc21 (racemic) | 95 °C
Cc1cc(I)cc2[nH]c(C(=O)O)cc(=O)c12 | 294 °C
COC(=O)c1ccccc1-c1ccc(Cc2nc(-c3ccccc3)nc3ccccc23)cc1 | 120 to 121 °C
COC(=O)CC1=C(C)C(=Cc2ccc(S(N)(=O)=O)cc2)c2ccc(OC)cc21 | 170 to 171 °C
Cn1ccnc1Sc1ccc(Nc2c(C#N)cnc3cc(Br)ccc23)cc1Cl | 258 to 261 °C
CC(C)n1cnc2c(N[C@H](CO)c3ccccc3)nc(NC[C@@H](C)O)nc21 | 109 to 112 °C
COc1ccc(-n2nc(O)c3c(c2=O)Cc2ccc(Cl)cc2N3)c(C)c1 | 264 to 266 °C
CC(=O)NC1Cc2ccc(NC(=O)c3ccccc3-c3ccc(F)cc3)cc2C1 (configuration not stated) | 218 to 220 °C

Compound | melting point
Cc1nc(N(C)C)sc1C(=O)c1ccc(Cl)c([N+](=O)[O-])c1 | 165 to 169 °C
CC(=O)NCc1ccc(CN2CCN(c3ccc(Cl)cc3)CC2)cc1 | 180 to 182 °C
CSc1ncc(C#N)c(NC(C)C)n1 | 121 to 122 °C
O=C1CC2OC(CBr)CN12 (configuration not stated) | 49 to 50 °C
CNC(=O)Nc1snc(S(C)(=O)=O)c1C#N | 275 °C
COc1ccc(C2=NN(c3ccc(CC(=O)O)cc3)C(=O)[C@H]3CC=CC[C@@H]23)cc1OC (relative stereo) | 162 °C
CC1=C(C)C(=O)C(C(CCCCCC(=O)NCC(=O)O)c2ccccc2)=C(C)C1=O (configuration not stated) | 162 to 164 °C
CC(C)N(C(=O)Cl)c1ccccc1 | 89 to 90 °C
COc1ccc2c(Nc3ccc(Cl)cc3F)c(C#N)cnc2c1 | 208 to 210 °C
COC(=O)[C@H](CCSC)NC(=O)c1ccc(NC(Cn2ccnc2)c2ccc(F)cc2)cc1-c1ccc(F)cc1 (some centres not stated) | 94 to 98 °C
CC(=O)Oc1ccc(C(=O)O)cc1Cl | 152 to 159 °C
CC(=O)Nc1ccc(C#Cc2cnn3c(C(F)(F)F)cc(-c4ccc(C(F)(F)F)cc4)nc23)cn1 | 266 °C
CCCc1nc2c(N)nc3c(c2n1CCCCC(=O)N1CCOCC1)CCCC3 | 158 to 160 °C
CCOC(=O)C1(C(=O)OCC)CC(c2ccccc2[N+](=O)[O-])C(O)N1C=O (configuration not stated) | 109 to 111 °C
Cc1cccc(C(=O)NCN2CCN(c3ccccc3C#N)CC2)c1 | 131 to 133 °C
CCCOc1ccc([N+](=O)[O-])nc1C | 54 to 56 °C
CCCCCc1cc(O)c2c(c1)OC(C)(C)[C@@H]1CCC(=O)C[C@H]21 (relative stereo) | 120 to 134 °C
C[C@@H]1C(=O)C[C@H]2C[C@@H]1OO[C@@]2(C)/C=C\c1ccc(Br)c2ccccc12 | 167 °C
COc1cc2cc(CO)c(CO)c(-c3ccnc(C4C(=O)CCCC4=O)c3)c2cc1OC | > 220 °C
Cc1nc(-c2ccccc2)nc(-c2ccncc2)c1N | 208 to 209 °C
O=C(O)CCc1cn(Cc2ccc(OCc3coc(-c4ccccc4)n3)cc2)cc1-c1ccccc1 | 139 to 140 °C
CCNC1=CC(=O)CC1 | 136 °C
CC(C)CCS(=O)C1=C(O)CC(C)(C)CC1=O (configuration not stated) | 64.5 to 66 °C
CC(C)(C)CNc1nc(C#N)nc2ccc(OCc3cccnc3)cc12 | 156 to 158 °C
